“And” between values parts separate entries of the source, which are not always exact repeats. Identical values can stand only once. Like-named read-outs stand apart in the source and are kept apart here.
What was measured:
[1] = system: serine palmitoyltransferase; test: in vitro assay of serine palmitoyltransferase, rat liver microsomes; type: biochemical
Description: In vitro assays of serine palmitoyltransferase and ceramide synthase. A microsomal fraction was isolated from rat liver and assayed for serine palmitoyltransferase, as is known in the art as described in (24,29), and ceramide synthase, as is known in the art as described in (30), in the presence of varying concentrations of fumonisin B1. […] The reaction was initiated by adding palmitoyl-CoA and, after incubation at 37° C. for 15 min, the products were extracted, resolved by TLC, and quantitated as described above. Background counts were subtracted using data from identical assays that omitted palmitoyl-CoA.

[2] = system: serine palmitoyltransferase; test: serine palmitoyltransferase in disrupted cells after treatment of hepatocytes; type: cell-based, rat; conditions: hepatocytes treated with 2.5 μM
ceramide synthase = test: conversion of [3H]sphingosine to [3H]ceramide by intact hepatocytes; type: cell-based, rat; conditions: 1 μM for 1 h before [3H]sphingosine (FIG. 4D)
Description: To measure the relative activity of ceramide synthase in intact hepatocytes, the cells were incubated with 1 μM fumonisin B1 for 1 h, then 1 μCi of [^3H]sphingosine was added and the cells were incubated for varying times. The [^3H]sphingosine was freshly purified because it decomposes rapidly to a material with an Rf similar to that of ceramides on TLC. The [^3H]sphingosine was diluted to 1 Ci/mmol and applied to a small silica gel column (Unisil, Clarkston, Ill.) in chloroform. The column was washed with 10-column volumes of chloroform, the [^3H]sphingosine was eluted with methanol and the purity confirmed by TLC. The [^3H]sphingosine was transferred to a small test tube, the solvent was evaporated under N2, a small volume of culture medium was added immediately, and the tube was sonicated for a few minutes using a bath-type sonicator. Aliquots of this solution were added to the cells, and at the end or the specified incubation period the cells were scraped from the dish, 25 μg of unlabelled ceramide carrier was added, and the lipids were extracted as described above. The [^3H]ceramides were separated from [^3H]sphingosine using silica gel H TLC plates developed with diethyl ether:methanol (99:1, v/v), visualized with I2 vapor, and the amount of radiolabel was determined by scintillation counting.

[3] = Excerpt: Feeding protocols—Clinically normal ponies of varying age and sex were conditioned on the control diet for 21 days prior to the trial. Horse 341 was a 6 year old gelding (173-193 Kg), 299 was a 12 year old mare (205-215 Kg), 164 was a 12 year old mare (206-290 Kg) and 166 was a 16 year old mare (143-164 Kg). During the conditioning period and throughout the trial, all ponies received alfalfa hay by free choice. The test groups were fed varying levels of fumonisin (15 to 44 ppm) for varying lengths of time.
Clinical chemistry, evaluation, and tissue collection—The following clinical chemistry parameters were also analyzed with blood: total bilirubin, direct bilirubin, urea nitrogen, alkaline phosphatase, AST/SGOT, creatine kinase, gamma glutamyl transaminase, and bile acids. The animals were observed intermittently through ut each day and behavior changes were noted. Animals that were euthanized or died underwent a routine necropsy, and brain, liver, and kidney were prepared for microscopic study.

rat hepatocytes [4] = test: radiolabelling of phospholipids from [14C]serine in hepatocytes; type: cell-based; conditions: 16 h with [14C]serine
Description: Other methods—The incorporation of radiolabel into other lipids was determined by separating the phospholipids by TLC using silica gel H plates developed with CHCl,:methanol:formic acid:water (56:30:2:1, v/v/v/v), visualization of the spots and standards with I2 vapor, and quantitation by scintillation counting. The amount of label in fatty acids was estimated using samples that had been incubated with 0.1 M KOH in methanol for 1 h at 37° C. and separated using the ceramide TLC system because the methyl esters migrate near the solvent front under these conditions.

rat hepatocytes [5] = test: mass measurements of phospholipids, total sphingolipids and free long-chain bases in hepatocytes; type: cell-based; conditions: for Mass Phosphatidylcholine / Mass Phosphatidylethanolamine / Mass Phosphatidylserine / Mass Total sphingolipids: 16 h
Description: Mass measurements of the long-chain bases were conducted by HPLC, as is known in the art as previously described in (28), with C20-sphinganine as an internal standard. To quantitate total sphingolipids, the extracts were acid hydrolyzed before preparing the samples for HPLC and corrected, if necessary, for any losses during hydrolysis or extraction by spiking replicate samples with a known amount of ceramide or sphingomyelin.

[6] = reference 12; cited from earlier work
[7] = reference 13; cited from earlier work
[8] = system: de novo sphingolipid biosynthesis; test: de novo sphingosine biosynthesis from [14C]serine in hepatocytes
Description: Hepatocyte culture—Hepatocytes were prepared by a collagenase perfusion method, as known in the art as described in (22), from male Sprague-Dawley rats (125 to 200 g) fed a chow diet (Ralston Purina, St. Louis, Mo.) ad libitum. The hepatocytes were isolated using carefully aseptic procedures and plated in 60 mm tissue culture dishes coated with collagen for short term (<24 h) or with Matrigel for longer term (3 to 4 d) experiments. After plating for 4 h, the medium was changed to 2 ml of DMEM (with 3.7 g/L NaHCO3) containing 10 μg/ml f insulin, 6.1 g/L of penicillin, 10 g/L of streptomycin sulfate, and varying concentrations of fumonisins (added from a 1 mM solution in Delbecco's phosphate buffered saline). The cells were maintained in a tissue culture incubator at 37° C. and an atmosphere of 5% CO2; the medium was changed every 24 h.
Lipid analyses—The de novo biosynthesis of sphingosine was measured, as known in the art as described in (23,24). Briefly, cells that had been exposed to fumonisins for 0 to 4 d were changed to new medium containing 10 μCi of [^14C]serine (25 mCi/mmol) in 2 ml of serine-free DMEM (Gibco) in the presence or absence of fumonisin. After incubation for 2 or 16 h, they were scraped from the dishes, 25 μg of carrier sphingosine and sphinganine were added, and the lipids were extracted and acid hydrolyzed to liberate the free long-chain bases using conditions that give optimal hydrolysis with minimal decomposition of the labile long-chain bases, as known in the art as described in (23-25). The sphinganine and sphingosine were separated by thin-layer chromatography on silica gel H (Brinkman) plates developed with CHCl,:methanol:2 N NH4OH (40:10:1, v/v/v) and the radiolabelling profile (shown in FIG. 2) was determined by radiometric scanning of the plates with a Bioscan System 200 Imaging Scanner. […] The appropriate regions of the chromatoplate were scraped, placed in scintillation vials, and 0.2 ml of water and 4 ml of a detergent based scintillation cocktail were added. After several hours, the samples were counted with the appropriate corrections for quenching.

rat hepatocytes [9] = test: hepatocyte viability (trypan blue exclusion); type: cell-based; conditions: 1 μM, 4 d

With CCCC[C@@H](C)[C@@H](OC(=O)C[C@@H](CC(=O)O)C(=O)O)[C@H](C[C@@H](C)C[C@H](O)CCCC[C@@H](O)C[C@H](O)[C@H](C)N)OC(=O)C[C@@H](CC(=O)O)C(=O)O [fumonisin B1] the “effect on activity of serine palmitoyltransferase in vitro” value ([1]; 25 μM) was “did not reduce”, the “activity of serine palmitoyltransferase in vitro” value ([1]; in the presence of 25 μM) was 88±3 pmol 3-ketosphinganine formed/min/mg of microsomal protein and the “inhibition of serine palmitoyltransferase in disrupted cells” value [2] was “no inhibition”. For the same compound, the “serine palmitoyltransferase activity in disrupted cells” value [2] was 7.7±0.2 pmol/min per mg of cellular protein, the “[3H]sphingosine conversion to ceramides” value (ceramide synthase) was “Inhibition” and the AST/SGDT ([3]; Pony 208, fumonisin feed (level not given), day 2) was 344 units. It also gave an AST/SGDT ([3]; Pony 208, fumonisin feed (level not given), day 6) of 2130 units, an AST/SGDT ([3]; Pony 208, fumonisin feed (level not given), day 10) of 1240 units and an AST/SGDT ([3]; Pony 208, fumonisin feed (level not given), day 13) of 1010 units. It also gave an AST/SGDT ([3]; Pony #164, feed 44 ppm, day 2) of 235 Units, an AST/SGDT ([3]; Pony #164, feed 44 ppm, day 7) of 357 Units and an AST/SGDT ([3]; Pony #164, feed 44 ppm, day 10) of 4000 Units. For the same compound, the clinical signs ([3]; Pony #164, feed 44 ppm, day 10) was “^1Pony was described as nervous and off feed from day 5; by day 9 was blind and down, and on day 10 had full clinical signs of ELEM and died that evening”, the clinical signs ([3]; Pony #166, feed 44 ppm, after being put back on full feed) was “^2Pony was described as lethargic from day 5; off feed from day 8; later put back on full feed and exhibited CNS signs; was euthanized on day 45” and the AST/SGDT ([3]; Pony #166, feed 44 ppm, day 2) was 199 Units. For the same compound, the AST/SGDT ([3]; Pony #166, feed 44 ppm, day 7) was 215 Units, the AST/SGDT ([3]; Pony #166, feed 44 ppm, day 10) was 1470 Units and the AST/SGDT ([3]; Pony #166, feed 44 ppm, day 13) was 2080 Units. For the same compound, the clinical outcome ([3]; ponies 164 and 166, feed 44 ppm) was “resulted in ELEM”, the time of death ([3]; pony 164, feed 44 ppm) was 10 days and the “elevation in AST/SGOT” value ([3]; pony 166, 44 ppm, day 10) was 7 fold. The day of euthanasia ([3]; pony 166, feed 44 ppm) was 45 days, the clinical outcome ([3]; pony 341, 15 then 22 ppm, day 235) was “died with the symptoms of equine leucoencephalomalacia” and the “serum AST/SGOT activities” value ([3]; pony 341, 15 then 22 ppm, until between day 224 and 231) was “essentially unaffected”. The “Radiolabelling Phosphatidylcholine” value (rat hepatocytes [4]; 1 μM) was 2640 ± 264 cm/mg protein × 10^−3, the “Radiolabelling Phosphatidylethanolamine” value (rat hepatocytes [4]; 1 μM) was 163 ± 4.4 cm/mg protein × 10^−3 and the “Radiolabelling Phosphatidylserine” value (rat hepatocytes [4]; 1 μM) was 48.8 ± 2.9 cm/mg protein × 10^−3. The “Radiolabelling Phosphatidylcholine” value (rat hepatocytes [4]; 10 μM) was 2740 ± 196 cm/mg protein × 10^−3, the “Radiolabelling Phosphatidylethanolamine” value (rat hepatocytes [4]; 10 μM) was 153 ± 10 cm/mg protein × 10^−3 and the “Radiolabelling Phosphatidylserine” value (rat hepatocytes [4]; 10 μM) was 52.3 ± 3.6 cm/mg protein × 10^−3. For the same compound, the “Mass Phosphatidylcholine” value (rat hepatocytes [5]; 1 μM) was 105 ± 1.8 nmol/mg protein, the “Mass Phosphatidylethanolamine” value (rat hepatocytes [5]; 1 μM) was 44.9 ± 1.4 nmol/mg protein and the “Mass Phosphatidylserine” value (rat hepatocytes [5]; 1 μM) was 15.5 ± 2.6 nmol/mg protein. The “Mass Total sphingolipids” value (rat hepatocytes [5]; 1 μM) was 6.7 ± 0.3 nmol/mg protein, the “fold increase of sphinganine versus control” value (rat hepatocytes [5]; 1 μM, 4 d) was 110 fold and the free sphingosine (rat hepatocytes [5]; 1 μM, 4 d) was 52±1 pmol/dish. The “mass of free sphinganine” value (rat hepatocytes [5]; 1 μM, 4 d) was 1499±18 pmol/dish, the “level of total sphingolipids” value (rat hepatocytes [5]; 1 μM, 4 d, cells on Matrigel) was 2.1±0.1 nmol/dish and the “reduction of level of total sphingolipids” value (rat hepatocytes [5]; 1 μM, 4 d, cells on Matrigel) was “about half”. The “Mass Phosphatidylcholine” value (rat hepatocytes [5]; 10 μM) was 112 ± 3.4 nmol/mg protein, the “Mass Phosphatidylethanolamine” value (rat hepatocytes [5]; 10 μM) was 44.4 ± 0.9 nmol/mg protein and the “Mass Phosphatidylserine” value (rat hepatocytes [5]; 10 μM) was 12.3 ± 1.9 nmol/mg protein. The “Mass Total sphingolipids” value (rat hepatocytes [5]; 10 μM) was 6.5 ± 0.7 nmol/mg protein, the “amount of free sphingosine” value (rat hepatocytes [5]; within the first 2 h (FIG. 4B)) was “only a small reduction” and the disease caused [6] was “equine leucoencephalomalacia”. For the same compound, the disease caused [7] was “porcine pulmonary edema”, the “inhibition of [14C]sphingosine formation by hepatocytes” value ([8]; 1 μM) was “almost complete inhibition” and the “de novo sphingolipid biosynthesis” value ([8]; 10 μM) was “completely blocked”. The “amount of radiolabel in [14C]sphinganine” value ([8]; hepatocytes treated (FIG. 4A)) was “increased”, the IC50 ([8]; read-out: IC50 for inhibition of [14C]serine incorporation into [14C]sphingosine, rat hepatocytes, 2 h incubation (FIG. 3B)) was ~100 nM and 100 nM and the “number of viable cells” value (rat hepatocytes [9]) was “no decrease”.
